According to patent US20090247495A1, “CU[…] AND USES THEREOF” (priority 2007, published 2009):

Legend:
K562 cells = test: Cell morphology by microscopy, K562; format: cell-based, human; conditions: 48 hours
Experimental: 10^5/ml K562 cells were treated with cucurbitacin B in the presence of complete medium containing 10% FBS for 48 hours. The changes in cell morphology were visualized using Leica DMIL (Leica Microsystem). Cells were harvested and rinsed twice with ice-cold PBS (pH7.4) and a total 2.5×10^5 K562 cells were stained with 10 μl Annexin V and 10 μl propidium iodide in 100 μl 1×binding buffer for 15 minutes in dark and then subjected to apoptosis analysis with FACSCalibar Flow cytometer system (FACS Calibur BD Flow Cytometer). • 6.1.5 Flow Cytometry for Cell Cycle Analysis
After 48 hours of cucurbitacin B treatment, the cells were viewed using a Leica DMIL microscope at 400×magnification. […] However, the treated cells lost the rounded shape and shrank in size at the highest dose of cucurbitacin B used (80nM).

[1] = system: Human cancer cell lines from the 59-NCI Cancer Cell Line Panel; format: cell-based
Panc 10.05 = test: MTT cell cytotoxicity assay, Panc 10.05; format: cell-based; conditions: Homo sapiens, Panc1005, 48 hours
Experimental: Three human pancreatic cancer cell lines (Panc-1, Panc 02.13, Panc 10.05) were purchased from American Type Culture Collection (ATCC, Manassas, Va., USA). Panc 02.13 and Panc 10.05 were grown in RPMI 1640 medium supplemented with 15% FBS, 4.5 g/L glucose, 10 mM HEPES, and 1.0 mM sodium pyruvate and 10 Units/ml human insulin; while PANC-1 was grown in Dulbecco's modified Eagle's medium supplemented with 10% FBS. They were maintained in a humidified 5% CO2 atmosphere at 37° C. and the culture medium was changed once in 2 days.
The cytotoxic effect of CuB on these three cancer cell lines were determined using MTT (3-[4,5-dimethylthiazol-2-yl]-2,5-diphenyl tetrazolium bromide) labeled cell cytotoxicity assay. A total of 1×10^4 cells were seeded into a 96-well plate for 24 hours prior to cucurbitacin B (CuB) treatment. They were then treated with different dosages of CuB for 48 hours. After the treatment, 20 μl of MTT (5 mg/ml) was added to each well and incubated for 4 hrs. Then the medium was discarded and 100 μl of dimethyl sulfoxide was added. The absorbance at 570 nm was then measured by FLUOstar OPTIMA equipment (BMG, LABTECH GmbH, Germany). The percentage of inhibition against different dosages of CuB were plotted using the Prism software and the 50% inhibition concentration (IC50) were obtained. […]

[2] = system: Human cancer cell lines from the 59-NCI Cancer Cell Line Panel; test: Apoptosis (Annexin V-FITC / PI) by flow cytometry, 18 selected NCI panel cell lines; format: cell-based; conditions: 48 hours; GI50, ½ GI50 and ¼ GI50
Experimental: Apoptosis is the important mechanism for cell death in normal cells. In cancer cells, this mechanism fails and cells proliferate without control. Human cancer cell lines from the 59-NCI Cancer Cell Line Panel including leukemia, melanoma and cancers of breast, brain, colon, lung, ovary, prostate and kidney were purchased from the National Institute of Cancer. […] They were treated with cucurbitacin B and cucurbitacin D at three different concentrations to elucidate their ability to induce any changes in cell cycle.
Cancer cell lines were maintained in RPMI 1640 supplemented with 5% Fetal Bovine Serum, 2 mM L-glutamine and 1% Penicillin/Streptomycin at 37° C. with 5% CO2. Cells were inoculated into tissue culture flask at cell concentrations from 50000 to 400,000 cells/ml according to the NCI guideline. The cells were incubated at 37° C. with 5% CO2 for 24 hours. Cucurbitacin B and cucurbitacin D were added to the cells of final concentrations ranging from 6 to 350 nM (GI50, ½ GI50 and ¼ GI50 of particular cell line) for 48 hours at 37° C. with 5% CO2. Cells (3×10^5) were then harvested and stained with 5 μl Annexin V-FITC and 10 μl propidium iodine (Becton Dickinson, CA, USA) for 15 minutes at room temperature. Ten thousands events were collected by the FACScaliber and the percentage of different cell populations were analyzed by the CellQuest™ software (Becton Dickinson).

hsp27 = test: Western blot of hsp27 in HepG2, HT29 and MCF-7 cells; format: cell-based, human
Experimental: The human cancer cells line were serum starved for 18 hours prior to CuB/CuD treatment. Cells were incubated in a 6-well plate filled with 5 ml growth medium (RPMI with 0.2% FBS and 1% PS) at the cell density of 1×10^5 cells/ml, in the presence or absence of two different dosages of CuB/CuD for various time intervals. The drug treatment was terminated by centrifugation at 1,500 rpm for 5 minutes and the cells were rinsed twice with phosphate-buffered saline and lysed at 4° C. in a lysis buffer containing 50 mM Tris-HCl, pH7.5, 100 mM NaCl, 5 mM EDTA, 40 mM NaP2O7, 1% Triton X-100, 1 mM dithiothreitol, 200 μM Na3VO4, 100 uM phenylmethysufonyl fluoride, 2 μg/ml leupeptin, 4 μg/ml aprotinin and 0.7 μg/ml pepstatin. The insoluble protein lysate were removed by centrifugation for 10 minutes at 13,000 rpm. Fifteen micrograms of protein lysate was resolved using 10% SDS-polyacryamide gel electrophoresis (PAGE) and then subjected to western blot anaylsis. Western blots were performed with anti-Stat3, anti-Erk1/2 and anti-hsp27 antibodies specific for phosphor- and total Stat3, Erk and hsp27 proteins. The protein bands were then visualized with the Enhanced Chemiluminescence Plus (ECL Plus) detection system (Amersham). • 6.2.8.1 Inhibition Effect Cucurbitacin B/Cucurbitacin D on Stat3 Activation in HepG2 and HT29 Cells
Cells were incubated either with CuB or CuD (25 ug/ml or the dosage of IC50) for various time intervals (5, 10 or 30 mins, 1 or 4 hours). The Stat3 activation was detected by western blot.

Structure (SMILES): CC(=O)OC(C)(C)/C=C/C(=O)[C@](C)(O)C1[C@H](O)C[C@@]2(C)C3CC=C4C(C[C@H](O)C(=O)C4(C)C)[C@]3(C)C(=O)C[C@]12C (stereo partly drawn) [cucurbitacin B]
- changes in cell morphology (K562 cells; 20 nM and 40 nM): increase in cell size
- changes in cell morphology (K562 cells; 80 nM): shrinkage of cell size
- cell lines with G2/M arrest [1]: 6 out of 18
- cell cycle effect ([1]; HL60 (TB), 48 hours): G2/M arrest and endoreduplication
- GI50 (Panc 10.05): 5.81 µM
- cell lines in which apoptosis was induced [2]: 9 out of 18
- Hsp27 activation (hsp27; HT29, 10 minutes): significant up-regulation
- Hsp27 activation (hsp27; HepG2, 30 minutes): significant up-regulation
- Hsp27 activation (hsp27; MCF-7, 4 hours): significant up-regulation
